Patent publication US7981903B2, “2-[2-{phenylamino}-1H-pyrrolo[2,3-D]pyrimidin-4-yl)amino] benzamide derivatives as IGF-1R inhibitors for the treatment of cancer” (GlaxoSmithKline LLC, priority 2007, dated 2011)
Where “and” joins values, the source holds several entries; their conditions need not be identical. Equal values may be shown once.

Columns and labels:
human IGF1R (hIGF1R) = molecular target: T1, human IGF1R (hIGF1R) (Homo sapiens, UniProt P08069); test: TR-FRET kinase assay of purified hIGF1R; assay type: biochemical; conditions: activated hIGF1R 0.5 nM, 10 μM ATP, values given as pIC50 category, read-out: IGF-1R pIC50 (converted)
T1 construct: containing amino acid residues 957-1367 of human IGF1R; made in house; host or cells: Sf9 cells (baculovirus)
T1 sequence (P08069 957-1367): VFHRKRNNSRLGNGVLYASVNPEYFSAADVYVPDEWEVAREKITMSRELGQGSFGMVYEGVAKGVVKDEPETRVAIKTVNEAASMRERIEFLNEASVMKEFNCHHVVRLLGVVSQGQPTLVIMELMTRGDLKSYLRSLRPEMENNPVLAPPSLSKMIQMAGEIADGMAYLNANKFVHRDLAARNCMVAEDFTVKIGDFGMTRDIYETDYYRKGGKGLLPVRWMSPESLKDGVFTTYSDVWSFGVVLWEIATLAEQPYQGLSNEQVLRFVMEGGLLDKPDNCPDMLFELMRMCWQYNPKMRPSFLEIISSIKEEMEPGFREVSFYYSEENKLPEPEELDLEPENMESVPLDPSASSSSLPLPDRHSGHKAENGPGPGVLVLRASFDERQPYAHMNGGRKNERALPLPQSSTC

human IR (hIR) = molecular target: T2, human IR (hIR) (Homo sapiens, UniProt P06213); test: TR-FRET kinase assay of purified hIR; assay type: biochemical; conditions: activated hIR 0.5 nM, 10 μM ATP, values given as pIC50 category
T2 construct: containing amino acid residues 979-1382 of human IR; made in house; host or cells: Sf9 cells (baculovirus), same process as hIGF1R
T2 sequence (P06213 979-1382): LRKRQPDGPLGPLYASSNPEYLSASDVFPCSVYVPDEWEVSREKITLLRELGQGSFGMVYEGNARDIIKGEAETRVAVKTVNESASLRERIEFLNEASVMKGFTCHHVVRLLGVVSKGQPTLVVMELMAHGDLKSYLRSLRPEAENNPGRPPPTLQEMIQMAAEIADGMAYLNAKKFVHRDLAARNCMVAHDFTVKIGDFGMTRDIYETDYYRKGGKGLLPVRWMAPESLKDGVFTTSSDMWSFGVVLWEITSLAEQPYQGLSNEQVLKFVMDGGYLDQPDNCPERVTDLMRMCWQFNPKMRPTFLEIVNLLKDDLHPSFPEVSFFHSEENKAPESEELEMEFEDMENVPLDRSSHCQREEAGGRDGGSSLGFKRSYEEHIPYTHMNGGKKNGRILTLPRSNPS

Colo205 = test: Inhibition of cell proliferation (CellTiter-Glo or InCell analyzer), Colo205; assay type: cell-based; conditions: Homo sapiens, COLO 205, 72 h / 3 days, values given as IC50 category
In short: In one

SMILES | IC50 (human IGF1R (hIGF1R)) | IC50 (human IR (hIR)) | IC50 (Colo205)
COc1cc(N2CCC(N3CC[C@@H](F)C3)CC2)ccc1Nc1nc(Nc2cccc(F)c2C(N)=O)c2cc[nH]c2n1 [Example 44, 2-fluoro-6-[(2-{[4-{4-[(3R)-3-fluoro-1-pyrrolidinyl]-1-piperidinyl}-2-(methyloxy)phenyl]amino}-1H-pyrrolo[2,3-d]pyrimidin-4-yl)amino]benzamide] | 1.26 to 3.98 nM | 1.26 to 3.98 nM | 250 to 1000 nM
COc1cc2c(cc1Nc1nc(Nc3cc(F)cc(F)c3C(=O)NCC(C)C)c3cc[nH]c3n1)N(C(=O)CN(C)C)CC2 [Example 154, 2-[(2-{[1-(N,N-dimethylglycyl)-5-(methyloxy)-2,3-dihydro-1H-indol-6-yl]amino}-1H-pyrrolo[2,3-d]pyrimidin-4-yl)amino]-4,6-difluoro-N-(2-methylpropyl)benzamide] | 1.26 to 3.98 nM | 1.26 to 3.98 nM | > 1000 nM
COc1cc(N2CCN(C(C)=O)CC2)ccc1Nc1nc(Nc2cc(F)c(F)cc2C(N)=O)c2cc[nH]c2n1 [Example 103, 2-[(2-{[4-(4-acetyl-1-piperazinyl)-2-(methyloxy)phenyl]amino}-1H-pyrrolo[2,3-d]pyrimidin-4-yl)amino]-4,5-difluorobenzamide] | 0.251 to 1 nM | 0.251 to 1 nM | < 250 nM
COc1cc2c(cc1Nc1nc(Nc3cccc(F)c3C(=O)NC(C)C)c3cc[nH]c3n1)N(C(=O)CN(C)C)CC2 [Example 158, 2-[(2-{[1-(N,N-dimethylglycyl)-5-(methyloxy)-2,3-dihydro-1H-indol-6-yl]amino}-1H-pyrrolo[2,3-d]pyrimidin-4-yl)amino]-6-fluoro-N-(1-methylethyl)benzamide] | 1.26 to 3.98 nM | 1.26 to 3.98 nM | 250 to 1000 nM
CNC(=O)c1c(F)cccc1Nc1nc(Nc2cc(NC(=O)CN(C)C)ccc2OC)nc2[nH]ccc12 [Example 245, 2-[(2-{[5-[(N,N-dimethylglycyl)amino]-2-(methyloxy)phenyl]amino}-1H-pyrrolo[2,3-d]pyrimidin-4-yl)amino]-6-fluoro-N-methylbenzamide] | 1.26 to 3.98 nM | 0.251 to 1 nM and 1.26 to 3.98 nM | 250 to 1000 nM
COc1cc(N2CCC(C3CCN(CCS(C)(=O)=O)CC3)CC2)ccc1Nc1nc(Nc2cccc(F)c2C(N)=O)c2cc[nH]c2n1 [Example 112, 2-fluoro-6-({2-[(2-(methyloxy)-4-{1′-[2-(methylsulfonyl)ethyl]-4,4′-bipiperidin-1-yl}phenyl)amino]-1H-pyrrolo[2,3-d]pyrimidin-4-yl}amino)benzamide] | 1.26 to 3.98 nM | 1.26 to 3.98 nM | < 250 nM
COc1cc(N2CCC(N3CC[C@@H](F)C3)CC2)ccc1Nc1nc(Nc2cc(F)ccc2C(N)=O)c2cc[nH]c2n1 [Example 76, 4-fluoro-2-[(2-{[4-{4-[(3R)-3-fluoro-1-pyrrolidinyl]-1-piperidinyl}-2-(methyloxy)phenyl]amino}-1H-pyrrolo[2,3-d]pyrimidin-4-yl)amino]benzamide] | 0.251 to 1 nM | 0.251 to 1 nM | 250 to 1000 nM
COc1cc(N2CCC(N3CCCC(F)(F)C3)CC2)ccc1Nc1nc(Nc2cc(F)ccc2C(N)=O)c2cc[nH]c2n1 [Example 77, 2-[(2-{[4-(3,3-difluoro-1,4′-bipiperidin-1′-yl)-2-(methyloxy)phenyl]amino}-1H-pyrrolo[2,3-d]pyrimidin-4-yl)amino]-4-fluorobenzamide] | 1.26 to 3.98 nM | 0.251 to 1 nM | 250 to 1000 nM
CNC(=O)c1c(F)cccc1Nc1nc(Nc2cc3c(cc2OC)C(C)(C)CN3C(=O)CN(C)C)nc2[nH]ccc12 [Example 127, 2-[(2-{[1-(N,N-dimethylglycyl)-3,3-dimethyl-5-(methyloxy)-2,3-dihydro-1H-indol-6-yl]amino}-1H-pyrrolo[2,3-d]pyrimidin-4-yl)amino]-6-fluoro-N-methylbenzamide] | 1.26 to 3.98 nM | 1.26 to 3.98 nM | 250 to 1000 nM
